PubChem BioAssay (NCI)
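Grown in 96-well plates, cells were treated for 48 hours with each compound at five concentrations. Insufficient inhibition: endpoint recorded as highest concentration tested. Abbreviation: GI50, concentration required for 50% inhibition of growth. TGI: concentration producing complete growth inhibition.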

Tests used:
Assay in all cases: inhibition of tumour cell growth, NCI panel, 48 h
SF-295 CNS = test system: SF-295 CNS
EKVX NSCLC = test system: EKVX NSCLC
SF-539 CNS = test system: SF-539 CNS
UO-31 renal = test system: UO-31 renal
UACC-62 melanoma = test system: UACC-62 melanoma
SNB-75 CNS = test system: SNB-75 CNS
SK-OV-3 ovarian = test system: SK-OV-3 ovarian
IGROV1 ovarian = test system: IGROV1 ovarian
NCI-H460 lung = test system: NCI-H460 lung
TK-10 renal = test system: TK-10 renal
NCI-H522 lung = test system: NCI-H522 lung
RPMI-8226 leukemia = test system: RPMI-8226 leukemia
DU-145 prostate = test system: DU-145 prostate
SN12C renal = test system: SN12C renal
A498 renal = test system: A498 renal
NCI-H226 lung = test system: NCI-H226 lung
MALME-3M melanoma = test system: MALME-3M melanoma
OVCAR-3 ovarian = test system: OVCAR-3 ovarian
SW-620 colon = test system: SW-620 colon
T-47D breast = test system: T-47D breast
OVCAR-4 ovarian = test system: OVCAR-4 ovarian
KM12 colon = test system: KM12 colon
NCI/ADR-RES ovarian = test system: NCI/ADR-RES ovarian
U251 CNS = test system: U251 CNS
CCRF-CEM leukemia = test system: CCRF-CEM leukemia
HCT-116 colon = test system: HCT-116 colon
OVCAR-8 ovarian = test system: OVCAR-8 ovarian
PC-3 prostate = test system: PC-3 prostate
ACHN renal = test system: ACHN renal
BT-549 breast = test system: BT-549 breast
HL-60(TB) leukemia = test system: HL-60(TB) leukemia
HCC-2998 colon = test system: HCC-2998 colon
UACC-257 melanoma = test system: UACC-257 melanoma
SK-MEL-28 melanoma = test system: SK-MEL-28 melanoma
786-0 renal = test system: 786-0 renal
HS 578T breast = test system: HS 578T breast
LOX IMVI melanoma = test system: LOX IMVI melanoma
HCT-15 colon = test system: HCT-15 colon
M14 melanoma = test system: M14 melanoma
NCI-H23 lung = test system: NCI-H23 lung
COLO 205 colon = test system: COLO 205 colon
HOP-62 NSCLC = test system: HOP-62 NSCLC
SR leukemia = test system: SR leukemia
HT29 colon = test system: HT29 colon
K-562 leukemia = test system: K-562 leukemia
MOLT-4 leukemia = test system: MOLT-4 leukemia
SK-MEL-2 melanoma = test system: SK-MEL-2 melanoma
CAKI-1 renal = test system: CAKI-1 renal
MCF7 breast = test system: MCF7 breast
SNB-19 CNS = test system: SNB-19 CNS
RXF 393 renal = test system: RXF 393 renal
MDA-MB-435 = test system: MDA-MB-435
HOP-92 NSCLC = test system: HOP-92 NSCLC
A549 NSCLC = test system: A549 NSCLC
SF-268 CNS = test system: SF-268 CNS
MDA-MB-231 breast = test system: MDA-MB-231 breast
OVCAR-5 ovarian = test system: OVCAR-5 ovarian

Oc1[nH]c2ccc(Cl)cc2c1/C=c1/ccc2c(c1)N=C(c1ccc(F)cc1)N=2
GI50 (SF-295 CNS): 7.02 µM | TGI (SF-295 CNS): 30.6 µM | GI50 (EKVX NSCLC): 3.37 µM | TGI (EKVX NSCLC): 15.9 µM | GI50 (SF-539 CNS): 2.24 µM | TGI (SF-539 CNS): 5 µM | GI50 (UO-31 renal): 2.3 µM | TGI (UO-31 renal): 11 µM | GI50 (UACC-62 melanoma): 2.5 µM | TGI (UACC-62 melanoma): 8.06 µM | GI50 (SNB-75 CNS): 1.5 µM | TGI (SNB-75 CNS): 3.78 µM | GI50 (SK-OV-3 ovarian): 7.07 µM | TGI (SK-OV-3 ovarian): 19.1 µM | GI50 (IGROV1 ovarian): 2.12 µM | TGI (IGROV1 ovarian): 4.42 µM | GI50 (NCI-H460 lung): 2.05 µM | TGI (NCI-H460 lung): 4.52 µM | GI50 (TK-10 renal): 2.83 µM | TGI (TK-10 renal): 4.88 µM | GI50 (NCI-H522 lung): 1.99 µM | TGI (NCI-H522 lung): 4.32 µM | GI50 (RPMI-8226 leukemia): 2.91 µM | TGI (RPMI-8226 leukemia): 12.2 µM | GI50 (DU-145 prostate): 2.53 µM | TGI (DU-145 prostate): 5.06 µM | GI50 (SN12C renal): 2.71 µM | TGI (SN12C renal): 10.2 µM | GI50 (A498 renal): 3.36 µM | TGI (A498 renal): 16.5 µM | GI50 (NCI-H226 lung): 8.22 µM | TGI (NCI-H226 lung): 23.2 µM | GI50 (MALME-3M melanoma): 1.83 µM | TGI (MALME-3M melanoma): 3.95 µM | GI50 (OVCAR-3 ovarian): 1.92 µM | TGI (OVCAR-3 ovarian): 3.58 µM | GI50 (SW-620 colon): 1.89 µM | TGI (SW-620 colon): 3.74 µM | GI50 (T-47D breast): 2.23 µM | TGI (T-47D breast): 6.17 µM | GI50 (OVCAR-4 ovarian): 1.64 µM | TGI (OVCAR-4 ovarian): 3.1 µM | GI50 (KM12 colon): 2.54 µM | TGI (KM12 colon): 6.53 µM | GI50 (NCI/ADR-RES ovarian): 1.87 µM | TGI (NCI/ADR-RES ovarian): 3.58 µM | GI50 (U251 CNS): 1.81 µM | TGI (U251 CNS): 3.5 µM | GI50 (CCRF-CEM leukemia): 2.07 µM | TGI (CCRF-CEM leukemia): 4.93 µM | GI50 (HCT-116 colon): 1.49 µM | TGI (HCT-116 colon): 2.81 µM | GI50 (OVCAR-8 ovarian): 1.96 µM | TGI (OVCAR-8 ovarian): 4.26 µM | GI50 (PC-3 prostate): 2.14 µM | TGI (PC-3 prostate): 5.65 µM | GI50 (ACHN renal): 3.19 µM | TGI (ACHN renal): 11.9 µM | GI50 (BT-549 breast): 1.38 µM | TGI (BT-549 breast): 3.11 µM | GI50 (HL-60(TB) leukemia): 2.76 µM | TGI (HL-60(TB) leukemia): 7.83 µM | GI50 (HCC-2998 colon): 4.68 µM | TGI (HCC-2998 colon): 15.9 µM | GI50 (UACC-257 melanoma): 1.89 µM | TGI (UACC-257 melanoma): 4.35 µM | GI50 (SK-MEL-28 melanoma): 1.78 µM | TGI (SK-MEL-28 melanoma): 3.48 µM | GI50 (786-0 renal): 1.8 µM | TGI (786-0 renal): 3.9 µM | GI50 (HS 578T breast): 2.31 µM | TGI (HS 578T breast): 7.51 µM | GI50 (LOX IMVI melanoma): 1.63 µM | TGI (LOX IMVI melanoma): 3.01 µM | GI50 (HCT-15 colon): 2.04 µM | TGI (HCT-15 colon): 4.47 µM | GI50 (M14 melanoma): 1.52 µM | TGI (M14 melanoma): 2.98 µM | GI50 (NCI-H23 lung): 1.65 µM | TGI (NCI-H23 lung): 3.59 µM | GI50 (COLO 205 colon): 2.32 µM | TGI (COLO 205 colon): 5.23 µM | GI50 (HOP-62 NSCLC): 1.77 µM | TGI (HOP-62 NSCLC): 3.23 µM | GI50 (SR leukemia): 2.11 µM | TGI (SR leukemia): 5.14 µM | GI50 (HT29 colon): 1.93 µM | TGI (HT29 colon): 3.5 µM | GI50 (K-562 leukemia): 2.11 µM | TGI (K-562 leukemia): 4.48 µM | GI50 (MOLT-4 leukemia): 2.52 µM | TGI (MOLT-4 leukemia): 7.1 µM | GI50 (SK-MEL-2 melanoma): 2.87 µM | TGI (SK-MEL-2 melanoma): 6.81 µM | GI50 (CAKI-1 renal): 4.08 µM | TGI (CAKI-1 renal): 20.3 µM | GI50 (MCF7 breast): 1.33 µM | TGI (MCF7 breast): 2.83 µM | GI50 (SNB-19 CNS): 2.08 µM | TGI (SNB-19 CNS): 5.14 µM | GI50 (RXF 393 renal): 1.89 µM | TGI (RXF 393 renal): 3.72 µM | GI50 (MDA-MB-435): 1.62 µM | TGI (MDA-MB-435): 3.45 µM | GI50 (HOP-92 NSCLC): 11.7 µM | TGI (HOP-92 NSCLC): 26.9 µM | GI50 (A549 NSCLC): 1.74 µM | TGI (A549 NSCLC): 3.61 µM | GI50 (SF-268 CNS): 2.16 µM | TGI (SF-268 CNS): 4.37 µM | GI50 (MDA-MB-231 breast): 1.63 µM | TGI (MDA-MB-231 breast): 4.18 µM | GI50 (OVCAR-5 ovarian): 4.17 µM | TGI (OVCAR-5 ovarian): 14.7 µM
